Test results: patent publication US20240417406A1, “NITROGEN-CONTAINING TRICYCLIC COMPOUND AND PHARMACEUTICAL USE THEREOF” (JAPAN TOBACCO INC., priority 2021, published 2024)

Target: human PDHK2 (hPDHK2) (Homo sapiens (Human), UniProt Q15119)
Assay: Inhibitory action of PDHK2 activity (PDH/hPDHK2 complex, residual PDH activity by NADH absorbance at 340 nm)
Type: biochemical
Conditions: FLAG-tagged recombinant hPDHK2 with porcine heart PDH complex; PDHK reaction 45 min at room temperature
Method: In the case of human PDHK2 (hPDHK2, NCBI Reference Database Accession number NM_002611.4), modified hPDHK2 cDNA wherein FLAG-Tag sequence was added to the N terminal of hPDHK2 cDNA clone (pReceiver-M01/PDK2-GeneCopoeia) as the base was prepared by polymerase chain reaction (PCR) and ligated to the NdeI/EcoRI site of pET-17b vector (Merck KGaA, Catalog Number 69663-3). The recombinant construct was transformed into Escherichia coli DH5a. The recombinant clones were identified, and plasmid DNA was isolated and subjected to the DNA sequence analysis. One clone which had the expected nucleic acid sequence was selected for expression work.
For expression of hPDHK2 activity, Escherichia coli strain BL21(DE3) cells (Merck KGaA, Catalog Number 69450-4) were transformed with the pET17b vector containing modified hPDHK2 cDNA. The Escherichia coli were grown to an optical density 0.6 ([…]) at 30° C. Protein expression was induced by the addition of 500 μmol/L isopropyl-β-thiogalactopyranoside. The Escherichia coli were cultured at 20° C. for 17 to for 18 hr and harvested by centrifugation. The harvested Escherichia coli was resuspended in a suspension buffer (20 mmol/L HEPES-NaOH, 500 mmol/L sodium chloride, 1% ethylene glycol, 0.1% Pluronic (registered trademark) F-68 (pH 8.0), cOmplete, EDTA-free (Roche) (pH 8.0)), and disrupted by a microfluidizer M-110H (MIZUHO INDUSTRIAL CO., LTD.). The precipitate was removed by centrifugation and the supernatant was added to DDDDK-tagged Protein PURIFICATION GEL (MEDICAL & BIOLOGICAL LABORATORIES CO., LTD., Code No. 3329). DDDDK-tagged Protein PURIFICATION GEL was washed with a washing buffer (20 mmol/L HEPES-NaOH, 500 mmol/L sodium chloride, 1% ethylene glycol, 0.1% Pluronic F-68 (pH 8.0)) and the bound protein was eluted with elution buffer 1 (20 mmol/L HEPES-NaOH, 100 μg/mL peptide (amino acid sequence DYKDDDDK) (SEQ ID NO: 1), 500 mmol/L sodium chloride, 1% ethylene glycol, 0.1% Pluronic F-68 (pH 8.0)). The eluted fractions containing FLAG-Tagged protein were pooled, concentrated by an ultrafiltration method, added to a gel filtration column (HiLoad 26/60 Superdex 200 (GE Healthcare Life Sciences, Code No. 17-1070-01)), and eluted with elution buffer 2 (20 mmol/L HEPES-NaOH, 150 mmol/L sodium chloride, 0.5 mmol/L ethylenediaminetetraacetic acid (EDTA), 1% ethylene glycol, 0.1% Pluronic F-68 (pH 8.0)). The eluted fractions were pooled and preserved at −80° C.
PDH (porcine heart PDH complex, Sigma P7032) and 0.5 μg/mL hPDHK2 were mixed in an assay buffer (50 mmol/L 3-morpholinopropanesulfonic acid (pH 7.0), 20 mmol/L dipotassium hydrogen phosphate, 60 mmol/L potassium chloride, 2 mmol/L magnesium chloride, 0.4 mmol/L EDTA, 0.2% poloxamer, 2 mmol/L dithiothreitol) so that the final concentration of PDH was 0.025 U/mL, and the mixture was incubated at 4° C. overnight to obtain a PDH/hPDHK2 complex solution.
PDH was mixed with the assay buffer so that the final concentration was 0.025 U/mL, and the mixture was incubated at 4° C. overnight to prepare a PDH solution.
The test compounds were diluted with DMSO. […] DMSO (1.5 μL) was added to control wells instead of test compound. In addition, DMSO (1.5 μL) was added to blank wells instead of the test compound, and PDH solution was added instead of the PDH/hPDHK2 complex solution. To measure an inhibitory action of the test compound on the PDHK activity inherent in the PDH solution, a test compound was added and the PDH solution instead of the PDH/hPDHK2 complex solution was added to a blank+test compound well.
Then, 10 μL of substrates (5 mmol/L sodium pyruvate, 5 mmol/L Coenzyme A, 12 mmol/L NAD, 5 mmol/L thiamine pyrophosphate, diluted with assay buffer) were added. The mixture was incubated at room temperature for 90 min, and the residual PDH activity was measured.
The absorbance of each well at 340 nm was measured using a microplate reader to detect NADH produced by the PDH reaction. […]

Structure (SMILES) | IC50
C[C@H]1Cc2nn(CC(C)(C)O)cc2-c2onc([C@@](C)(O)C(F)(F)F)c21 (racemic) [Example 38] | 25.2 nM
C[C@H]1Cc2nn(C3CC(C#N)C3)cc2-c2onc([C@@](C)(O)C(F)(F)F)c21 (stereo in doubt) [Example 30] | 21.2 nM
C[C@H]1Cn2nc(OCC(C)(C)O)cc2-c2onc([C@@](C)(O)C(F)(F)F)c21 [Example 31, (R)-1,1,1-trifluoro-2-((R)-8-(2-hydroxy-2-methylpropoxy)-4-methyl-4,5-dihydroisoxazolo[5,4-c]pyrazolo[1,5-a]pyridin-3-yl)propan-2-ol] | 13.7 nM
C[C@H]1Cn2nc(C(F)(F)F)cc2-c2cnnc([C@@](C)(O)C(F)(F)F)c21 [Example 100, (R)-1,1,1-trifluoro-2-((R)-5-methyl-9-(trifluoromethyl)-5,6-dihydropyrazolo[1′,5′:1,2]pyrido[3,4-d]pyridazin-4-yl)propan-2-ol] | 11.1 nM
COC(=O)C12CCC(c3nnc4n3C[C@H](C)c3c([C@@](C)(O)C(F)(F)F)noc3-4)(CC1)CC2 [Example 11] | 6.6 nM
C[C@H]1Cc2c(cnn2[C@H]2CC[C@](C)(O)CC2)-c2onc([C@@](C)(O)C(F)(F)F)c21 (racemic) [Example 56, (1S,4r)-1-methyl-4-((S)-4-methyl-3-((R)-1,1,1-trifluoro-2-hydroxypropan-2-yl)-4,5-dihydro-6H-isoxazolo[5,4-e]indazol-6-yl)cyclohexan-1-ol and enantiomer thereof] | 10.7 nM
C[C@H]1Cc2c(cnn2C(C)(C)C)-c2onc([C@@](C)(O)C(F)(F)F)c21 (racemic) [Example 16] | 12.2 nM
C[C@H]1Cc2nn(C)cc2-c2onc([C@@](C)(O)C(F)(F)F)c21 (racemic) [Example 23] | 18.8 nM
C[C@H]1Cn2nc(C(F)(F)F)cc2-c2cnnc([C@@](C)(O)C(F)(F)F)c21 (racemic) [Example 99, mixture of (R)-1,1,1-trifluoro-2-((R)-5-methyl-9-(trifluoromethyl)-5,6-dihydropyrazolo[1′,5′:1,2]pyrido[3,4-d]pyridazin-4-yl)propan-2-ol and (S)-1,1,1-trifluoro-2-((S)-5-methyl-9-(trifluoromethyl)-5,6-dihydropyrazolo[1′,5′:1,2]pyrido[3,4-d]pyridazin-4-yl)propan-2-ol] | 23.4 nM
C[C@H]1Cc2[nH]ncc2-c2onc([C@@](C)(O)C(F)(F)F)c21 (racemic) [Example 20] | 22.6 nM
C[C@H]1Cn2nc(OCF)cc2-c2onc([C@@](C)(O)C(F)(F)F)c21 [Example 64, (R)-1,1,1-trifluoro-2-((R)-8-(fluoromethoxy)-4-methyl-4,5-dihydroisoxazolo[5,4-c]pyrazolo[1,5-a]pyridin-3-yl)propan-2-ol] | 7.5 nM
C[C@H]1Cc2c(cnn2CC(C)(C)O)-c2onc([C@@](C)(O)C(F)(F)F)c21 (racemic) [Example 39] | 14.4 nM
C[C@H]1Cn2c(nnc2C(F)F)-c2onc([C@@](C)(O)C(F)(F)F)c21 [Example 25] | 15.7 nM
C[C@H]1Cc2nn([C@H]3C[C@@](C)(C#N)C3)cc2-c2onc([C@@](C)(O)C(F)(F)F)c21 (racemic) [Example 58, (1R,3s)-1-methyl-3-((S)-4-methyl-3-((R)-1,1,1-trifluoro-2-hydroxypropan-2-yl)-4,5-dihydro-7H-isoxazolo[5,4-e]indazol-7-yl)cyclobutane-1-carbonitrile and enantiomer thereof] | 20.4 nM
C[C@H]1Cn2c(nnc2C(C)(C)F)-c2onc([C@@](C)(O)C(F)(F)F)c21 [Example 4] | 10.9 nM
C[C@H]1Cn2nc(O[C@H]3C[C@@](C)(C#N)C3)cc2-c2onc([C@@](C)(O)C(F)(F)F)c21 (racemic) [Example 48] | 18.1 nM
C[C@H]1Cn2nc(OCCC(C)(C)O)cc2-c2onc([C@@](C)(O)C(F)(F)F)c21 [Example 62, 2-methyl-4-(((R)-4-methyl-3-((R)-1,1,1-trifluoro-2-hydroxypropan-2-yl)-4,5-dihydroisoxazolo[5,4-c]pyrazolo[1,5-a]pyridin-8-yl)oxy)butan-2-ol] | 8 nM
C[C@H]1Cc2c(cnn2C(F)F)-c2onc([C@@](C)(O)C(F)(F)F)c21 (racemic) [Example 21] | 19.8 nM

Other lines, results leading:

IC50 | Structure (SMILES)
11.5 nM | COc1cc2n(n1)C[C@H](C)n1c-2cnc1[C@@](C)(O)C(F)(F)F [Example 67]
29.8 nM | C[C@H]1Cn2nc(N3C[C@@H]4C[C@H]3CO4)cc2-c2cnc([C@@](C)(O)C(F)(F)F)n21 [Example 81]
31.9 nM | C[C@H]1Cn2nc(C34CCC(CO)(C3)C4)cc2-c2cnc([C@@](C)(O)C(F)(F)F)n21 [Example 92]
15.7 nM | C[C@H]1Cc2c(cnn2-c2ccccc2)-c2cnc(C(C)(O)C(F)(F)F)n21 (stereo in doubt) [Example 73, (S)-1,1,1-trifluoro-2-((S)-5-methyl-3-phenyl-4,5-dihydro-3H-imidazo[1,5-a]pyrazolo[4,3-c]pyridin-7-yl)propan-2-ol]
21.2 nM | C[C@H]1Cn2nc(C34CC(CO)(C3)C4)cc2-c2cnc([C@@](C)(O)C(F)(F)F)n21 [Example 70]
8.7 nM | C[C@H]1Cn2nc(OCC3(C#N)CC3)cc2-c2onc([C@@](C)(O)C(F)(F)F)c21 [Example 33]
15.2 nM | COCCOc1cc2n(n1)C[C@H](C)n1c-2cnc1[C@@](C)(O)C(F)(F)F [Example 68]
14.4 nM | C[C@H]1Cn2nc(N3CCC4(CC3)COC4)cc2-c2cnc([C@@](C)(O)C(F)(F)F)n21 [Example 77]
16.6 nM | C[C@H]1Cn2nc(C34CCC(CO)(CC3)OC4)cc2-c2cnc([C@@](C)(O)C(F)(F)F)n21 [Example 85]
9.8 nM | C[C@H]1Cn2nc(C3CCOCC3)cc2-c2onc([C@@](C)(O)C(F)(F)F)c21 [Example 61, (R)-1,1,1-trifluoro-2-((R)-4-methyl-8-(tetrahydro-2H-pyran-4-yl)-4,5-dihydroisoxazolo[5,4-c]pyrazolo[1,5-a]pyridin-3-yl)propan-2-ol]
6.6 nM | C[C@H]1Cn2nc(C34CCC(C#N)(CC3)CC4)cc2-c2cnc([C@@](C)(O)C(F)(F)F)n21 [Example 71, 4-((S)-5-methyl-3-((R)-1,1,1-trifluoro-2-hydroxypropan-2-yl)-5,6-dihydroimidazo[1,5-a]pyrazolo[5,1-c]pyrazin-9-yl)bicyclo[2.2.2]octane-1-carbonitrile]
9.1 nM | C[C@H]1Cn2nc(C34CCC(C(C)(C)O)(CC3)CO4)cc2-c2cnc([C@@](C)(O)C(F)(F)F)n21 [Example 98, (R)-1,1,1-trifluoro-2-((S)-9-(4-(2-hydroxypropan-2-yl)-2-oxabicyclo[2.2.2]octan-1-yl)-5-methyl-5,6-dihydroimidazo[1,5-a]pyrazolo[5,1-c]pyrazin-3-yl)propan-2-ol]
34 nM | C[C@H]1Cn2nc(N3C[C@H]4C[C@@H]3CO4)cc2-c2cnc([C@@](C)(O)C(F)(F)F)n21 [Example 82]
14 nM | C[C@H]1Cn2nc(O[C@H]3CCOC3)cc2-c2onc([C@@](C)(O)C(F)(F)F)c21 (racemic) [Example 36]
43.4 nM | C[C@H]1Cn2nc(N3C[C@H]4COC[C@H]4C3)cc2-c2cnc([C@@](C)(O)C(F)(F)F)n21 [Example 80]
